Publication PMC5789975, “Computer-aided Discovery of Peptides that Specifically Attack Bacterial Biofilms” (Scientific Reports, 2018)
Converted amounts (≈) assume the structure as drawn. Where two headings read alike, the source gives them in different places. Ends that are not written are not given here.

Columns and labels:
[1] = tested on: S. aureus (MRSA SAP0017) biofilms; experiment: Static microtitre plate antibiofilm screen (crystal violet); format: cell-based, Staphylococcus aureus; details: SPOT-synthesized, highest peptide concentration evaluated, compared to untreated controls; listed from most to least active
Description: The SPOT-synthesized peptides were evaluated for their antibiofilm activity in vitro as described previously. Briefly, 5 μl of SPOT-peptide stock solution or a corresponding serial dilution was placed in a 96-well polypropylene round bottom plate (Corning Inc. Corning, NY) and 95 μl of a 1/100 dilution of an overnight culture of MRSA SAP0017 in TSB supplemented with 1% glucose was added to each well. The plates were incubated overnight at 37 °C to allow for bacterial growth and biofilm maturation. After 24 hours, the media containing planktonic bacteria was rinsed from each well with distilled water and the remaining biomass was stained with 0.1% crystal violet. The unbound dye was rinsed away and the biofilm bound dye was suspended in 70% ethanol and the absorbance at 595 nm was recorded on a plate reader. Percent biofilm inhibition was calculated by comparison to the amount of crystal violet stain in the untreated controls (defined as 100%) and the sterility control wells (defined as 0%). Results from three separate biological replicates were averaged and outliers were identified using the modified Thompson Tau test and removed from the analysis. The antibiofilm activity of all SPOT-derived peptides was assessed at multiple concentrations (up to five 2-fold dilutions from the stock solution) and the peptide concentration yielding the largest difference in percent inhibition of biofilm growth was used in subsequent analysis.

[2] = tested on: planktonic S. aureus MRSA (SAP0017); experiment: MIC determination, broth microdilution; format: cell-based, Staphylococcus aureus; details: for MIC, MHB: Mueller Hinton Broth; for MIC, MHB / MIC, TSB with 1% Glucose: broth microdilution, ~5 × 10^5 CFU/ml, 37 °C overnight, visual read, mean of three biological replicates; for MIC, TSB with 1% Glucose: Tryptic Soy Broth with 1% glucose; for MIC: Staphylococcus aureus, MRSA
Description: The MIC of the synthesized peptides was determined in both Mueller Hinton Broth (MHB) and Tryptic Soy Broth (TSB) supplemented with 1% glucose, using the broth microdilution method[21] with slight modifications. Briefly, 10 μl of a 10× concentrated peptide stock solution, vancomycin antibiotic, or vehicle control (water) was placed in the bottom of a well in a 96-well polypropylene round bottom plate (Corning Inc. Corning, NY). A bacterial suspension of S. aureus MRSA (SAP0017, clinical isolate kindly provided by Dr. Tony Chow, Vancouver General Hospital) was prepared from an overnight culture to a final cell density of ~5 × 10^5 CFU/ml and 90 μl of this was added to each well.

[3] = tested on: MCP-1 production from PBMCs; experiment: MCP-1 chemokine induction by peptide alone (ELISA); format: cell-based, human; details: highest peptide concentration evaluated (40 µM), compared to 1018; six donors
Description: (§1) The cytotoxicity and immunomodulatory activity of both 1018 and 3002 was assessed as described previously. Briefly, peripheral blood mononuclear cells (PBMCs) were collected from healthy volunteers in accordance with the University of British Columbia ethics guidelines. PBMCs were plated in Costar 96-well flat bottom tissue culture treated plates at a final density of 1 × 10^6 cells/ml in RPMI media supplemented with 10% fetal bovine serum. Both peptides were tested at final concentrations of 40, 20 and 10 µM. Cytotoxicity was assessed using the Cytotoxicity Detection Kit (Roche Diagnostics, Basel, Switzerland) which measures lactate dehydrogenase activity released from damaged cells. Immune modulation was characterized by measuring the production of MCP-1 chemokine by induced by peptide alone as well as the suppression of interleukin (IL)-1β from PBMCs stimulated with 10 ng/ml Pseudomonas aeruginosa PAO1 lipopolysaccharide. Levels of MCP-1 and IL-1β were quantified by enzyme linked immunosorbent assays (ELISAs) using kits from eBioscience Inc. (San Diego, CA).

[4] = tested on: IL-1β production from LPS-stimulated PBMCs; experiment: Suppression of IL-1β from LPS-stimulated PBMCs (ELISA); format: cell-based, human; details: PBMCs stimulated with 10 ng/ml P. aeruginosa PAO1 LPS; 10, 20, 40 µM peptide; six donors
Description: as §1

[5] = tested on: MRSA SAP0017 biofilms grown in flow cells; experiment: Eradication of pre-formed biofilms in flow cells; format: cell-based, Staphylococcus aureus; details: BM2 media, SYTO-9/propidium iodide, confocal microscopy
Description: Bacterial biofilms were grown in BM2 media (62 mM potassium phosphate buffer, pH 7, 7 mM (NH4)2SO4, 2 mM MgSO4, 10 μM FeSO4 and 0.4% (wt/vol) glucose) for 48 hours followed by treatment with peptide (2 or 0.125 µM) for an additional 24 hours. The samples were stained with SYTO-9 and propidium iodide fluorescent dyes to image total and dead cells, respectively. Flow-cell images were acquired on an Olympus FluoView FV1000 confocal laser scanning microscope (Olympus Corp. Tokyo, Japan) and were analyzed with the Fiji software package.

[6] = tested on: S. aureus (MRSA SAP0017) biofilms; experiment: Static microtitre plate antibiofilm screen (crystal violet); format: cell-based, Staphylococcus aureus
MRSA USA300 LAC = experiment: Murine cutaneous abscess model; format: in vivo, CD-1 mice; details: 14 mg/kg
Description: The in vivo activity of the identified antibiofilm peptide 3002 and the parental compound 1018 was evaluated using a recently described murine abscess model of chronic MRSA infections. All animal experiments were performed in accordance with The Canadian Council on Animal Care (CCAC) guidelines and were approved by the University of British Columbia Animal Care Committee. Briefly, the fur on the backs of 6-week old female CD-1 mice (Charles River Laboratories, Wilmington, MA) was removed by shaving and subsequent treatment with depilatory cream. MRSA USA300 LAC was grown to an optical density at 600 nm of 1 in tryptic soy broth (TSB) at which point cells were washed twice with sterile PBS and then suspended in PBS to a final cell density of 5 × 10^7 CFU/50 μL. Mice were infected with 50 μL of bacteria subcutaneously on the right flank of the back and 1 hour later, given saline (for controls) or treated with 14 mg/kg peptide (1018 or 3002) via intra-abscess injection. Mice were monitored daily and their weight as well as abscess lesion sizes (measured using a caliper) were recorded every 24 hrs. Visible dermonecrosis or white lesions (filled with pus) were considered as part of the abscess lesion while swelling/inflammation was disregarded in the abscess size measurements. Three days post-infection, abscesses were excised and homogenized using a Bead Ruptor 4 tissue homogenizer (OMNI International, Kennesaw GA) for 5 minutes and serially plated for viable CFU quantification.

## LIVIQLLKKWWK [compound 41, Experimental Validation Set peptide]
[1]
  antibiofilm activity of SPOT-synthesized Experimental Validation Set peptides: exhibited antibiofilm activity

## VIKVLIKRWLKL [compound 9, Experimental Validation Set peptide]
[1]
  antibiofilm activity of SPOT-synthesized Experimental Validation Set peptides: exhibited antibiofilm activity

## IQRWWKVWLKVI-NH2 [compound 3004, QSAR–predicted antibiofilm peptide, >95% purity, C-terminally amidated]
[1]
  antibiofilm activity of SPOT-synthesized Experimental Validation Set peptides: exhibited antibiofilm activity
[2]
  MIC, MHB: 4 µM
  MIC, TSB with 1% Glucose: 16 µM

## IWLRLKVVLKRK-NH2 [compound 3006, QSAR–predicted antibiofilm peptide, >95% purity, C-terminally amidated]
[1]
  antibiofilm activity of SPOT-synthesized Experimental Validation Set peptides: exhibited antibiofilm activity
[2]
  MIC, MHB: 4 µM
  MIC, TSB with 1% Glucose: 32 µM

## CN[C@H](CC(C)C)C(=O)N[C@H]1C(=O)N[C@@H](CC(N)=O)C(=O)N[C@H]2C(=O)N[C@H]3C(=O)N[C@H](C(=O)N[C@H](C(=O)O)c4cc(O)cc(O)c4-c4cc3ccc4O)[C@H](O)c3ccc(c(Cl)c3)Oc3cc2cc(c3O[C@@H]2O[C@H](CO)[C@@H](O)[C@H](O)[C@H]2O[C@H]2C[C@](C)(N)[C@H](O)[C@H](C)O2)Oc2ccc(cc2Cl)[C@H]1O [Vancomycin, reference compound]
[2]; read-out: MIC, MHB
  MIC: 0.34 µM (≈ 0.493 µg/mL)
[2]; read-out: MIC, TSB with 1% Glucose
  MIC: 0.68 µM (≈ 0.986 µg/mL)

## ILVRWIRWRIQW-NH2 [compound 3002, QSAR–predicted antibiofilm peptide, >95% purity, C-terminally amidated]
[3]
  MCP-1 production induced by peptide alone: induced significantly more MCP-1 production
[4]
  suppression of IL-1β production: in a concentration dependent manner to similar levels as seen for peptide 1018
[5]; 0.125 μM peptide for 24 h
  eradication of 2-day old pre-formed MRSA biofilms: effectively eradicated
[5]; 2 µM peptide for 24 h
  eradication of 2-day old pre-formed MRSA biofilms: effectively eradicated
[1]
  antibiofilm activity of SPOT-synthesized Experimental Validation Set peptides: exhibited antibiofilm activity
[2]
  MIC, MHB: 2 µM
  MIC, TSB with 1% Glucose: 4 µM
[6]; >95% pure peptide, static microtitre plate assay
  concentration effectively inhibiting MRSA biofilm growth (as low as): 1 µM
[6]; >95% pure peptides, static microtitre plate assay
  enhancement in antibiofilm potency compared to 1018: 8 fold
MRSA USA300 LAC; single intra-abscess injection 1 h after infection, 3 days
  reduction of abscess lesion size compared to untreated controls: 2.8 fold
MRSA USA300 LAC; single intra-abscess injection, CFU three days post-infection
  effect on bacterial load recovered from the abscesses: neither peptide had any effect

## WKKVQWLKRLLL-NH2 [compound 3003, QSAR–predicted antibiofilm peptide, >95% purity, C-terminally amidated]
[1]
  antibiofilm activity of SPOT-synthesized Experimental Validation Set peptides: exhibited antibiofilm activity
[2]
  MIC, MHB: 4 µM
  MIC, TSB with 1% Glucose: 16 µM
[6]; >95% pure peptide, 32 μM
  residual biofilm growth: ~ 40%

## LWQLWLKLKLKG [compound 56, Experimental Validation Set peptide]
[1]
  antibiofilm activity of SPOT-synthesized Experimental Validation Set peptides: exhibited antibiofilm activity

## IKWVLRKIVQII [compound 37, Experimental Validation Set peptide]
[1]
  antibiofilm activity of SPOT-synthesized Experimental Validation Set peptides: exhibited antibiofilm activity

## KKWQLLIKWKLR [compound 11, Experimental Validation Set peptide]
[1]
  antibiofilm activity of SPOT-synthesized Experimental Validation Set peptides: exhibited antibiofilm activity

## IQLKLIWVKRKW [compound 48, Experimental Validation Set peptide]
[1]
  antibiofilm activity of SPOT-synthesized Experimental Validation Set peptides: exhibited antibiofilm activity

## VIKWLLKILRAI-NH2 [compound 3001, QSAR–predicted antibiofilm peptide, >95% purity, C-terminally amidated]
[1]
  antibiofilm activity of SPOT-synthesized Experimental Validation Set peptides: exhibited antibiofilm activity
[2]
  MIC, MHB: 1 µM
  MIC, TSB with 1% Glucose: 2 µM

## VLKIKVKIWVVK-NH2 [compound 3007, QSAR–predicted antibiofilm peptide, >95% purity, C-terminally amidated]
[1]
  antibiofilm activity of SPOT-synthesized Experimental Validation Set peptides: exhibited antibiofilm activity
[2]
  MIC, MHB: 16 µM
  MIC, TSB with 1% Glucose: >64 µM

## VQWIQIVVWRKR [compound 6, Experimental Validation Set peptide]
[1]
  antibiofilm activity of SPOT-synthesized Experimental Validation Set peptides: exhibited antibiofilm activity

## WIIRWIKIWLKI [compound 46, Experimental Validation Set peptide]
[1]
  antibiofilm activity of SPOT-synthesized Experimental Validation Set peptides: exhibited antibiofilm activity

## GLIIKIIKKRLW [compound 26, Experimental Validation Set peptide]
[1]
  antibiofilm activity of SPOT-synthesized Experimental Validation Set peptides: exhibited antibiofilm activity

## RRIIKILLWKLR [compound 10, Experimental Validation Set peptide]
[1]
  antibiofilm activity of SPOT-synthesized Experimental Validation Set peptides: exhibited antibiofilm activity

## VLQIKKVLRLLL [compound 17, Experimental Validation Set peptide]
[1]
  antibiofilm activity of SPOT-synthesized Experimental Validation Set peptides: exhibited antibiofilm activity

## RRQWRGWVRIWL-NH2 [compound 3005, QSAR–predicted antibiofilm peptide, >95% purity, C-terminally amidated]
[1]
  antibiofilm activity of SPOT-synthesized Experimental Validation Set peptides: exhibited antibiofilm activity
[2]
  MIC, MHB: 4 µM
  MIC, TSB with 1% Glucose: 64 µM
